Laboratory results from PMC12298351, “Novel 3,19-(N-Phenyl-3-(4-fluorophenyl)-pyrazole) Acetal of Andrographolide Promotes Cell Cycle Arrest and Apoptosis in MDA-MB-231 Breast Cancer Cells” (Pharmaceuticals, 2025).

Legend:
SNB-19 = assay type: cell-based; details: SNB-19, CNS
M14 = assay type: cell-based; details: M14, Melanoma
OVCAR-4 = assay type: cell-based; details: OVCAR-4, Ovarian; for CC50: read-out: 50% lethal concentration (LC50)
TK-10 = assay type: cell-based; details: TK-10, Renal
BT-549 = assay type: cell-based; details: BT-549, Breast
K-562 = details: K-562, Leukemia; for CC50: read-out: 50% lethal concentration (LC50)
MOLT-4 = details: MOLT-4, Leukemia; for CC50: read-out: 50% lethal concentration (LC50)
RPMI-8226 = details: RPMI-8226, Leukemia; for CC50: read-out: 50% lethal concentration (LC50)
EKVX = details: for Total growth inhibition (TGI): Non-Small Cell Lung; for GI50: Non-Small-Cell Lung; for CC50: read-out: 50% lethal concentration (LC50), Non-Small Cell Lung
NCI-H23 = details: for Total growth inhibition (TGI) / CC50: NCI-H23, Non-Small Cell Lung; for GI50: NCI-H23, Non-Small-Cell Lung; for CC50: read-out: 50% lethal concentration (LC50)
COLO 205 = details: COLO 205, Colon
HCC-2998 = details: HCC-2998, Colon
HT29 = details: HT29, Colon; for CC50: read-out: 50% lethal concentration (LC50)
KM12 = details: KM12, Colon
SW-620 = details: SW-620, Colon; for CC50: read-out: 50% lethal concentration (LC50)
SF-268 = details: SF-268, CNS; for CC50: read-out: 50% lethal concentration (LC50)
SF-295 = details: SF-295, CNS; for CC50: read-out: 50% lethal concentration (LC50)
U251 = details: U251, CNS
LOX IMVI = details: for GI50 / Total growth inhibition (TGI): Melanoma; for CC50: read-out: 50% lethal concentration (LC50), Melanoma
SK-MEL-2 = details: SK-MEL-2, Melanoma
SK-MEL-5 = details: SK-MEL-5, Melanoma; for CC50: read-out: 50% lethal concentration (LC50)
UACC-257 = details: UACC-257, Melanoma
IGROV1 = details: IGROV1, Ovarian; for CC50: read-out: 50% lethal concentration (LC50)
OVCAR-3 = details: OVCAR-3, Ovarian; for CC50: read-out: 50% lethal concentration (LC50)
OVCAR-5 = details: OVCAR-5, Ovarian; for CC50: read-out: 50% lethal concentration (LC50)
SK-OV-3 = details: SK-OV-3, Ovarian; for CC50: read-out: 50% lethal concentration (LC50)
CAKI-1 = details: CAKI-1, Renal
SN12C = details: for GI50 / Total growth inhibition (TGI): Renal; for CC50: read-out: 50% lethal concentration (LC50), Renal
PC-3 = details: PC-3, Prostate; for CC50: read-out: 50% lethal concentration (LC50)
MDA-MB-231 = details: for GI50: MDA-MB-231, Breast; for Total growth inhibition (TGI) / CC50: MDA-MB-231/ATCC, Breast; for CC50: read-out: 50% lethal concentration (LC50)
T-47D = details: for GI50 / Total growth inhibition (TGI): Breast; for CC50: read-out: 50% lethal concentration (LC50), Breast
MDA-MB-468 = details: MDA-MB-468, Breast; for CC50: read-out: 50% lethal concentration (LC50)
[1] = read-out: 50% lethal concentration (LC50)

Structure (SMILES): C=C1CCC2C3(C)COC(c4cn(-c5ccccc5)nc4-c4ccccc4)OC3CCC2(C)C1CC=C1C(=O)OCC1O (stereo not shown) [1a]
- GI50 (SNB-19): 1850 nM
- Total growth inhibition (TGI) (SNB-19): 3.78 µM
- CC50 (SNB-19; [1]): 7.73 µM
- GI50 (M14): 1810 nM
- LC50 (50% lethal concentration) (M14): 7.23 µM
- Total growth inhibition (TGI) (M14): 3.62 µM
- GI50 (OVCAR-4): 2310 nM
- CC50 (OVCAR-4): > 100 µM
- GI50 (TK-10): 1780 nM
- Total growth inhibition (TGI) (TK-10): 3.39 µM
- CC50 (TK-10; [1]): 6.46 µM
- GI50 (BT-549): 1640 nM
- Total growth inhibition (TGI) (BT-549): 3.16 µM
- CC50 (BT-549; [1]): 6.1 µM
- GI50 (K-562): 2970 nM
- Total growth inhibition (TGI) (K-562): > 100 µM
- CC50 (K-562): > 100 µM
- GI50 (MOLT-4): 1970 nM
- Total growth inhibition (TGI) (MOLT-4): > 100 µM
- CC50 (MOLT-4): > 100 µM
- GI50 (RPMI-8226): 2020 nM
- Total growth inhibition (TGI) (RPMI-8226): 8.62 µM
- CC50 (RPMI-8226): > 100 µM
- Total growth inhibition (TGI) (EKVX): 4.66 µM
- GI50 (EKVX): 2070 nM
- CC50 (EKVX): > 100 µM
- Total growth inhibition (TGI) (NCI-H23): 3.08 µM
- GI50 (NCI-H23): 1690 nM
- CC50 (NCI-H23): 5.64 µM
- GI50 (COLO 205): 2010 nM
- Total growth inhibition (TGI) (COLO 205): 3.57 µM
- CC50 (COLO 205; [1]): 6.31 µM
- GI50 (HCC-2998): 1680 nM
- Total growth inhibition (TGI) (HCC-2998): 3.11 µM
- CC50 (HCC-2998; [1]): 5.76 µM
- GI50 (HT29): 2370 nM
- Total growth inhibition (TGI) (HT29): 6.77 µM
- CC50 (HT29): > 100 µM
- GI50 (KM12): 2060 nM
- Total growth inhibition (TGI) (KM12): 4.31 µM
- GI50 (SW-620): 1730 nM
- Total growth inhibition (TGI) (SW-620): 3.68 µM
- CC50 (SW-620): 7.82 µM
- GI50 (SF-268): 3200 nM
- Total growth inhibition (TGI) (SF-268): 20.5 µM
- CC50 (SF-268): > 100 µM
- GI50 (SF-295): 1640 nM
- Total growth inhibition (TGI) (SF-295): 3.05 µM
- CC50 (SF-295): 5.67 µM
- GI50 (U251): 1840 nM
- Total growth inhibition (TGI) (U251): 3.71 µM
- CC50 (U251; [1]): 7.48 µM
- GI50 (LOX IMVI): 1540 nM
- Total growth inhibition (TGI) (LOX IMVI): 3 µM
- CC50 (LOX IMVI): 5.85 µM
- GI50 (SK-MEL-2): 1740 nM
- Total growth inhibition (TGI) (SK-MEL-2): 3.54 µM
- CC50 (SK-MEL-2; [1]): 7.2 µM
- GI50 (SK-MEL-5): 1400 nM
- Total growth inhibition (TGI) (SK-MEL-5): 2.7 µM
- CC50 (SK-MEL-5): 5.2 µM
- GI50 (UACC-257): 1900 nM
- Total growth inhibition (TGI) (UACC-257): 3.8 µM
- CC50 (UACC-257; [1]): 7.62 µM
- GI50 (IGROV1): 1770 nM
- Total growth inhibition (TGI) (IGROV1): 3.44 µM
- CC50 (IGROV1): 6.66 µM
- GI50 (OVCAR-3): 1820 nM
- Total growth inhibition (TGI) (OVCAR-3): 3.35 µM
- CC50 (OVCAR-3): 6.16 µM
- GI50 (OVCAR-5): 1860 nM
- CC50 (OVCAR-5): 8.71 µM
- GI50 (SK-OV-3): 1770 nM
- Total growth inhibition (TGI) (SK-OV-3): 18.7 µM
- CC50 (SK-OV-3): 91.1 µM
- GI50 (CAKI-1): 1860 nM
- Total growth inhibition (TGI) (CAKI-1): 4.81 µM
- GI50 (SN12C): 1870 nM
- Total growth inhibition (TGI) (SN12C): 3.96 µM
- CC50 (SN12C): 8.37 µM
- GI50 (PC-3): 1950 nM
- Total growth inhibition (TGI) (PC-3): 4.7 µM
- CC50 (PC-3): 66.9 µM
- GI50 (MDA-MB-231): 1720 nM
- Total growth inhibition (TGI) (MDA-MB-231): 3.25 µM
- CC50 (MDA-MB-231): 6.15 µM
- GI50 (T-47D): 1420 nM
- Total growth inhibition (TGI) (T-47D): 3.47 µM
- CC50 (T-47D): 8.47 µM
- GI50 (MDA-MB-468): 1690 nM
- Total growth inhibition (TGI) (MDA-MB-468): 3.34 µM
- CC50 (MDA-MB-468): 6.58 µM

Structure (SMILES): C=C1CCC2C3(C)COC(c4cn(-c5ccccc5)nc4-c4ccc(Br)cc4)OC3CCC2(C)C1CC=C1C(=O)OCC1O (stereo not shown) [1h]
- GI50 (SNB-19): 1470 nM
- GI50 (M14): 1710 nM
- Total growth inhibition (TGI) (M14): 3.55 µM
- GI50 (OVCAR-4): 1890 nM
- Total growth inhibition (TGI) (OVCAR-4): 4.27 µM
- CC50 (OVCAR-4): > 100 µM
- GI50 (TK-10): 1190 nM
- GI50 (BT-549): 1470 nM
- Total growth inhibition (TGI) (BT-549): 3.5 µM
- GI50 (K-562): 2070 nM
- CC50 (K-562): > 100 µM
- GI50 (MOLT-4): 610 nM
- CC50 (MOLT-4): > 100 µM
- GI50 (RPMI-8226): 1280 nM
- Total growth inhibition (TGI) (RPMI-8226): > 100 µM
- CC50 (RPMI-8226): > 100 µM
- Total growth inhibition (TGI) (EKVX): 5.35 µM
- GI50 (EKVX): 2210 nM
- CC50 (EKVX): > 100 µM
- Total growth inhibition (TGI) (NCI-H23): 3.62 µM
- GI50 (NCI-H23): 1710 nM
- CC50 (NCI-H23): 7.67 µM
- GI50 (COLO 205): 1700 nM
- Total growth inhibition (TGI) (COLO 205): 3.51 µM
- GI50 (HCC-2998): 1830 nM
- Total growth inhibition (TGI) (HCC-2998): 3.49 µM
- GI50 (HT29): 2160 nM
- Total growth inhibition (TGI) (HT29): 6.51 µM
- CC50 (HT29): > 100 µM
- GI50 (KM12): 1680 nM
- Total growth inhibition (TGI) (KM12): 3.68 µM
- Total growth inhibition (TGI) (SW-620): > 100 µM
- CC50 (SW-620): > 100 µM
- GI50 (SF-268): 2110 nM
- Total growth inhibition (TGI) (SF-268): 4.68 µM
- CC50 (SF-268): 11.5 µM
- GI50 (SF-295): 1540 nM
- Total growth inhibition (TGI) (SF-295): 2.93 µM
- CC50 (SF-295): 5.57 µM
- GI50 (U251): 2110 nM
- Total growth inhibition (TGI) (U251): 2.89 µM
- GI50 (LOX IMVI): 1550 nM
- Total growth inhibition (TGI) (LOX IMVI): 2.9 µM
- CC50 (LOX IMVI): 5.41 µM
- GI50 (SK-MEL-2): 1760 nM
- Total growth inhibition (TGI) (SK-MEL-2): 3.18 µM
- GI50 (SK-MEL-5): 1600 nM
- Total growth inhibition (TGI) (SK-MEL-5): 2.96 µM
- CC50 (SK-MEL-5): 5.44 µM
- GI50 (UACC-257): 1700 nM
- Total growth inhibition (TGI) (UACC-257): 3.35 µM
- GI50 (IGROV1): 1670 nM
- Total growth inhibition (TGI) (IGROV1): 5.16 µM
- CC50 (IGROV1): > 100 µM
- GI50 (OVCAR-3): 1520 nM
- Total growth inhibition (TGI) (OVCAR-3): 3.32 µM
- CC50 (OVCAR-3): 7.25 µM
- GI50 (OVCAR-5): 1930 nM
- Total growth inhibition (TGI) (OVCAR-5): 5.08 µM
- CC50 (OVCAR-5): > 100 µM
- GI50 (SK-OV-3): 2030 nM
- Total growth inhibition (TGI) (SK-OV-3): 8.27 µM
- CC50 (SK-OV-3): > 100 µM
- GI50 (CAKI-1): 1590 nM
- Total growth inhibition (TGI) (CAKI-1): 3.49 µM
- CC50 (CAKI-1; [1]): 7.69 µM
- GI50 (SN12C): 1510 nM
- Total growth inhibition (TGI) (SN12C): 3.37 µM
- CC50 (SN12C): 7.48 µM
- GI50 (PC-3): 2030 nM
- CC50 (PC-3): > 100 µM
- GI50 (MDA-MB-231): 1590 nM
- Total growth inhibition (TGI) (MDA-MB-231): 3.14 µM
- CC50 (MDA-MB-231): 6.19 µM
- GI50 (T-47D): 1180 nM
- Total growth inhibition (TGI) (T-47D): 3.13 µM
- CC50 (T-47D): 8.33 µM
- GI50 (MDA-MB-468): 1930 nM
- Total growth inhibition (TGI) (MDA-MB-468): 3.47 µM
- CC50 (MDA-MB-468): 6.23 µM
